Literature values, collected in patent US7442671B2, “O-phenylphenol/alkoxylated amine wood protection compositions” (Contechem Inc., priority 2004, dated 2008).

For Oc1ccccc1-c1ccccc1 [O-phenylphenol, o-phenylphenol], the solubility in water is listed as “only slightly soluble in water”.
